Reference: PubChem BioAssay AID1083 (University of Pittsburgh Molecular Library Screening Center, 2008)
Where “and” joins values, the source holds several entries; their conditions need not be identical. Equal values may be shown once. Calls of active or inactive are those of the source. How the calls were made is not given here.

The molecules below were run against Serine/threonine-protein kinase PLK1 (Homo sapiens) (UniProt P53350) (assay: PLK1 polo-box domain peptide-binding inhibitors, SAR follow-up, biochemical, fluorescence polarization, purchased analogs, concentration response (AID 1083)). Conditions: Plk1 PBD peptide binding.
Sequence of Serine/threonine-protein kinase PLK1 (Homo sapiens) (P53350 whole entry, looked up, the tested form may be a part): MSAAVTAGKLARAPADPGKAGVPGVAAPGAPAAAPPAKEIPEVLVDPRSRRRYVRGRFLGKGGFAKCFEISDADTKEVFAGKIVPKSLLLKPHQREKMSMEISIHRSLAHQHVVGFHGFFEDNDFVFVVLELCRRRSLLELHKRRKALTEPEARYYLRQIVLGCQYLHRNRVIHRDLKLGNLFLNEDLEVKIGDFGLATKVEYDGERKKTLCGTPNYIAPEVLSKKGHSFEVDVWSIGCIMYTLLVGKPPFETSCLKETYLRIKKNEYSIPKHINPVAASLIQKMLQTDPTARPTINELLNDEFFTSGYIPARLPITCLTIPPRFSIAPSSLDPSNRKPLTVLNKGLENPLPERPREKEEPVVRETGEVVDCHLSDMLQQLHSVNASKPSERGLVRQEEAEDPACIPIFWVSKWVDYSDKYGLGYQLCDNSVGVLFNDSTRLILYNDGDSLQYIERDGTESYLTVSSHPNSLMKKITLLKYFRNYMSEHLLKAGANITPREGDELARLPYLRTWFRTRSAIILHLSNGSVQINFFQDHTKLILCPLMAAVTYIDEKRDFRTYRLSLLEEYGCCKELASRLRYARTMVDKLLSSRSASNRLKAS

Row | SMILES | IC50
1 | CC(=O)N(CN1C(=O)c2ccccc2C1=O)c1ccc(Oc2ccccc2)cc1 | > 50 µM (inactive)
2 | CCOC(=O)c1ccc(NC(=O)C2C3CCC(C3)C2C(=O)O)cc1 (stereo not drawn) | > 50 µM (inactive)
3 | CCOC(=O)c1ccc(NC(=O)c2cc(C)cc(C)c2)cc1 | > 50 µM (inactive)
4 | Cn1c(=O)c2nc(-c3ccccc3)c(-c3ccccc3)nc2n(C)c1=O | > 50 µM (inactive)
5 | CCOC(=O)N1CCN(c2cc3nccnc3cc2F)CC1 | > 50 µM (inactive)
6 | COc1ccc(N(/C=C2\Sc3ccccc3C2=O)C(C)=O)cc1 | > 50 µM (inactive)
7 | CCCCCC(=O)N(CN1C(=O)c2ccccc2C1=O)c1cccc(C(=O)O)c1 | > 50 µM (inactive)
8 | CC(=O)N(CN1C(=O)c2ccccc2C1=O)c1cccc(C)c1 | > 50 µM (inactive)
9 | CC(=O)N(CN1C(=O)c2ccccc2C1=O)c1cc(Br)ccc1C | > 50 µM (inactive)
10 | CCn1nc(-c2ccc(C)cc2)nc2c(=O)n(C)c(=O)nc1-2 | 0.932 µM
11 | O=C(COC(=O)c1ccc(NC(=O)c2ccc([N+](=O)[O-])cc2)cc1)c1ccccc1 | > 50 µM (inactive)
12 | CCOc1ccc(-c2nc3c(=O)n(C)c(=O)nc-3n(C)n2)cc1OC | 0.022 µM
13 | CCOC(=O)c1ccc(NC(=O)C2C3C=CC(C3)C2C(=O)O)cc1 (stereo not drawn) | > 50 µM (inactive)
14 | COc1ccc(N(CN2C(=O)c3cc(Cl)c(Cl)cc3C2=O)C(C)=O)cc1 | > 50 µM (inactive)
15 | Cn1c(=O)[nH]c2nnc(-c3ccccc3)nc2c1=O | > 50 µM (inactive)
16 | Cn1nc(-c2ccc([N+](=O)[O-])cc2)nc2c(=O)n(C)c(=O)nc1-2 | 0.375 µM
17 | CC(=O)N(CN1C(=O)c2ccccc2C1=O)c1ccccc1C | > 50 µM (inactive)
18 | CCOC(=O)c1ccc(NC(=O)C2Cc3ccccc3C(=O)O2)cc1 (stereo not drawn) | > 50 µM (inactive)
19 | COc1ccc(N(/N=C2\Sc3ccccc3C2=O)C(C)=O)cc1 | 15.2 µM
20 | CCOC(=O)c1ccc(NC(=O)C2Oc3ccccc3OC2C)cc1 (stereo not drawn) | > 50 µM (inactive)
21 | COc1ccccc1N(CN1C(=O)c2ccccc2C1=O)C(C)=O | > 50 µM (inactive)

Row | SMILES | IC50
22 | CCOC(=O)c1ccc(N=Cc2c(O)[nH]c(=O)[nH]c2=O)cc1 | > 50 µM (inactive)
23 | Cc1ccc(-c2nnc3[nH]c(=O)n(C)c(=O)c3n2)cc1 | > 50 µM (inactive)
24 | CCOC(=O)c1ccc(NC(=O)c2ccc3nc(N)sc3c2)cc1 | > 50 µM (inactive)
25 | O=C1NC(=O)C(=Cc2ccccc2OCCOc2ccccc2)C(=O)N1 | > 50 µM (inactive)
26 | CCn1nc(-c2ccccc2)nc2c(=O)n(C)c(=O)nc1-2 | 0.524 µM
27 | CCCCCC(=O)N(CN1C(=O)c2ccccc2C1=O)c1ccccc1OC | > 50 µM (inactive)
28 | CC(=O)N(CN1C(=O)c2ccccc2C1=O)c1ccc(C)c(Cl)c1 | > 50 µM (inactive)
29 | CC(=O)N(/N=C1\Sc2ccccc2C1=O)c1ccc(Br)cc1 | 45.8 µM
30 | COc1ccc(-c2nnc3[nH]c(=O)n(C)c(=O)c3n2)cc1OC | > 50 µM (inactive)
31 | CCCCCCC(=O)N(CN1C(=O)c2ccccc2C1=O)c1ccc(OCc2ccccc2)cc1 | > 50 µM (inactive)
32 | CCCCCCC(=O)N(CN1C(=O)c2ccccc2C1=O)c1ccccc1OC | > 50 µM (inactive)
33 | COc1ccc(-c2nc3c(=O)n(C)c(=O)nc-3n(C)n2)cc1OC | 0.295 µM
34 | CCn1nc(-c2ccccc2Br)nc2c(=O)n(C)c(=O)nc1-2 | 1.35 µM
35 | O=C1NC(=O)C(=Cc2c3ccccc3cc3ccccc23)C(=O)N1 | > 50 µM (inactive)
36 | CCOC(=O)c1ccc(N=Cc2c(O)n(C3CCCCC3)c(=O)n(C3CCCCC3)c2=O)cc1 | > 50 µM (inactive)
37 | CCOC(=O)c1ccc(NC(=O)c2ccc(NC(=O)CC)cc2)cc1 | > 50 µM (inactive)
38 | CC1CN(c2cc3nccnc3cc2F)CC(C)O1 (stereo not drawn) | > 50 µM (inactive)
39 | COc1ccc(N(CN2C(=O)c3ccccc3C2=O)C(=O)C(F)(F)F)cc1 | > 50 µM (inactive)
40 | Cn1c(O)c(C(=O)c2ccccc2Cl)c(=O)n(C)c1=O | > 50 µM (inactive)
41 | CC(=O)N(/N=C1\Sc2ccccc2C1=O)c1ccc(C)cc1C | > 50 µM (inactive)
42 | CCOC(=O)c1ccc(NC(=O)c2cncc(Br)c2)cc1 | > 50 µM (inactive)

Row | SMILES | IC50
43 | CCOC(=O)c1ccc(NC(=O)C2CCCCC2C(=O)O)cc1 (stereo not drawn) | > 50 µM (inactive)
44 | Cc1ccc(C(=O)CN2C=CC(=C(O)NCc3ccccc3)C=C2)cc1 | > 50 µM (inactive)
45 | CC(=O)N(/C=C1\Sc2ccccc2C1=O)c1ccc(C)c(C)c1 | > 50 µM (inactive)
46 | Cn1c(=O)[nH]c2nnc(-c3ccc4c(c3)OCO4)nc2c1=O | > 50 µM (inactive) and 4.91 µM
47 | CCCCOC(=O)c1ccc(NC(=O)c2cc(OCC)c(OCC)c(OCC)c2)cc1 | > 50 µM (inactive)
48 | Cc1ccccc1-c1nc2c(=O)n(C)c(=O)nc-2n(C)n1 | 1.68 µM and 4.03 µM
49 | CCOC(=O)c1ccc(NC(=O)C2CC(=O)NC(=NC)S2)cc1 (stereo not drawn) | > 50 µM (inactive)
50 | CC(=O)N(CN1C(=O)c2cccc([N+](=O)[O-])c2C1=O)c1ccc2c(c1)oc1ccccc12 | > 50 µM (inactive)
51 | CCOC(=O)c1ccc(NC(=O)C23CC4CC(CC(C4)C2)C3)cc1 | > 50 µM (inactive)
52 | CCCOC(=O)c1ccc(NC(=O)c2c(F)c(F)c(F)c(F)c2F)cc1 | > 50 µM (inactive)
53 | COC(=O)c1ccc(N(/N=C2\Sc3ccccc3C2=O)C(C)=O)cc1 | 13.9 µM
54 | CC(=O)N(CN1C(=O)c2ccccc2C1=O)c1cccc(F)c1 | > 50 µM (inactive)
55 | COc1cc(C=C2C(=O)NC(=O)NC2=O)cc(Cl)c1O | > 50 µM (inactive)
56 | Cc1ccc(-c2nc3c(=O)n(C)c(=O)nc-3n(C)n2)cc1 | 1.35 µM
57 | CC(=O)N(CN1C(=O)c2ccccc2C1=O)c1ccccc1Cl | > 50 µM (inactive)
58 | CCOC(=O)c1ccc(NC(=O)c2cc3ccccc3oc2=O)cc1 | > 50 µM (inactive)
59 | CCn1nc(-c2cccc(Cl)c2)nc2c(=O)n(C)c(=O)nc1-2 | 0.282 µM and > 50 µM (inactive)
60 | CC(=O)N(CN1C(=O)c2cc(Cl)c(Cl)cc2C1=O)c1ccc(C)c(Cl)c1 | > 50 µM (inactive)
61 | CCCCCC(=O)N(CN1C(=O)c2ccccc2C1=O)c1ccc(OCc2ccccc2)cc1 | > 50 µM (inactive)
62 | CC(=O)N(/C=C1\Sc2ccccc2C1=O)c1ccc(I)cc1 | > 50 µM (inactive)
63 | Cc1cc(-n2c(C)cc(C=C3C(=O)NC(=O)NC3=O)c2C)ccc1I | 45.2 µM
